According to ChEMBL document CHEMBL1151876, “Constrained (l-)-S-adenosyl-l-homocysteine (SAH) analogues as DNA methyltransferase inhibitors” (Bioorg Med Chem Lett, 2009):

Key:
[1] = target: T1, DNA (cytosine-5)-methyltransferase 1 (Homo sapiens, UniProt P26358)
Description: Inhibition of human recombinant DNMT1

[2] = target: DNA (cytosine-5)-methyltransferase 3B (Homo sapiens, UniProt Q9UBC3)
Description: Inhibition of human recombinant DNMT3b2

[3] = target: T1, DNA (cytosine-5)-methyltransferase 1; details: 45 uM
Description: Inhibition of human recombinant DNMT1 at 45 uM

T1 sequence (P26358 whole entry): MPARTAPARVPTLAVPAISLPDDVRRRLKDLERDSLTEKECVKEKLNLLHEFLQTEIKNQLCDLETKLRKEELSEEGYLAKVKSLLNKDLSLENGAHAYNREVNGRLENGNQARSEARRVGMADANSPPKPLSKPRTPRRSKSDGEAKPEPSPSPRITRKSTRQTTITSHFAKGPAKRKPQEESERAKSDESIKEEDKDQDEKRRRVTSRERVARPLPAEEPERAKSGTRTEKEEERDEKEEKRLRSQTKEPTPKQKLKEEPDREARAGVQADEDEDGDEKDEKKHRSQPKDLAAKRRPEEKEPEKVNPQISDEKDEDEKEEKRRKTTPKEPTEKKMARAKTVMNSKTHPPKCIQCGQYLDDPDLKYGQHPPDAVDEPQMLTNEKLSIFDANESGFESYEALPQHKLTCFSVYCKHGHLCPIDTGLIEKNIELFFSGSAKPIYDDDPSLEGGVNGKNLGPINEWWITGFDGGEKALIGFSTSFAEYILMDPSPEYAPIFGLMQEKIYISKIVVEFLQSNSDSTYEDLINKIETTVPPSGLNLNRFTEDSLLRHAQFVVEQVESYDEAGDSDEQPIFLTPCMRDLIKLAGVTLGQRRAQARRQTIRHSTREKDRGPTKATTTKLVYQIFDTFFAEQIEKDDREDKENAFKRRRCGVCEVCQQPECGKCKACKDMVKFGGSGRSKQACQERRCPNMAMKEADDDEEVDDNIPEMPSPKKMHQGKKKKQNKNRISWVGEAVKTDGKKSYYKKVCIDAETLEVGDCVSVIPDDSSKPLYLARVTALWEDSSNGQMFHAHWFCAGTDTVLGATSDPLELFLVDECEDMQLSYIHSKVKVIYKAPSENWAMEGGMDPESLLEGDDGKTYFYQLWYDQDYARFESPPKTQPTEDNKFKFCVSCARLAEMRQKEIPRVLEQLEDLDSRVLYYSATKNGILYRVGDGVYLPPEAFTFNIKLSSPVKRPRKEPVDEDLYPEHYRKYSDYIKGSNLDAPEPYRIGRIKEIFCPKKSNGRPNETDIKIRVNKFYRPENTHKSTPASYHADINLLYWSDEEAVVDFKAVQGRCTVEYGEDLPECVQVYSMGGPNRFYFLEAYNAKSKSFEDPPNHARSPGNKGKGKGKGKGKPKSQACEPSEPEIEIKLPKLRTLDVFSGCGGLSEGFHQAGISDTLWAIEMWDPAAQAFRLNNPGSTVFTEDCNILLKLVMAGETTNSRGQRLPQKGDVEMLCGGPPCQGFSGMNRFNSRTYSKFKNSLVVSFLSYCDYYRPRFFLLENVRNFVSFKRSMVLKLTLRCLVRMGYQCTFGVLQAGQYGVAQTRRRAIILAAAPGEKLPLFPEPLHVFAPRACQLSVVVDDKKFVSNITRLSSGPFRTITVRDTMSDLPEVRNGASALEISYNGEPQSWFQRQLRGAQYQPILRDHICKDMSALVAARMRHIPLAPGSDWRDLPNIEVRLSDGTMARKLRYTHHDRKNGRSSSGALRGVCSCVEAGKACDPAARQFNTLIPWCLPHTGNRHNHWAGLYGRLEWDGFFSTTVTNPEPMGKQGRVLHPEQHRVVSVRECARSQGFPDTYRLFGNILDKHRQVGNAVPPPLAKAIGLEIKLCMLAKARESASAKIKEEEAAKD

`COC(=O)[C@@H]1C[C@H](SC[C@H]2O[C@@H](n3cnc4c(N)ncnc43)[C@H](O)[C@@H]2O)CN1C` showed an IC50 [1] of 4.5 µM.
For `NCCCSC[C@H]1O[C@@H](n2cnc3c(N)ncnc32)[C@H](O)[C@@H]1O`, the IC50 [1] was over 45 µM and the IC50 [2] was 17 µM.
For `Nc1ncnc2c1ncn2[C@@H]1O[C@H](CS[C@H]2CCN[C@H](C(=O)O)C2)[C@@H](O)[C@H]1O`, the IC50 [1] was 8 µM.
Work on `CN1CC[C@@H](SC[C@H]2O[C@@H](n3cnc4c(N)ncnc43)[C@H](O)[C@@H]2O)C1` yielded an IC50 [1] of over 10 µM.
Molecule `Nc1ncnc2c1ncn2[C@@H]1O[C@H](CSCC[C@H](N)C(=O)O)[C@@H](O)[C@H]1O` [S-ADENOSYLHOMOCYSTEINE] has an IC50 [2] of 0.2 µM.
`COC(=O)[C@@H]1C[C@H](SC[C@H]2O[C@@H](n3cnc4c(N)ncnc43)[C@H](O)[C@@H]2O)CN1` gave an IC50 [1] of 4 µM.
`Nc1ncnc2c1ncn2[C@@H]1O[C@H](CS[C@H]2CCN[C@@H](C(=O)O)C2)[C@@H](O)[C@H]1O` was tested, and the IC50 [1] was over 100 µM.
In the case of `NC(=O)[C@@H]1C[C@H](SC[C@H]2O[C@@H](n3cnc4c(N)ncnc43)[C@H](O)[C@@H]2O)CN1`, the inhibition [3] is reported as 1%.
Work on `Nc1ncnc2c1ncn2[C@@H]1O[C@H](CS[C@H]2CCNC2)[C@@H](O)[C@H]1O` yielded an IC50 [1] of 44 µM and an IC50 [2] of 26 µM.
With `Nc1ncnc2c1ncn2[C@@H]1O[C@H](CS[C@@H]2CN[C@H](C(=O)O)C2)[C@@H](O)[C@H]1O` the IC50 [1] was 1.1 µM and the IC50 [2] was 0.3 µM.
`Nc1ncnc2c1ncn2[C@@H]1O[C@H](CS[C@H]2CN[C@H](C(=O)O)C2)[C@@H](O)[C@H]1O` showed an IC50 [1] of over 100 µM and an IC50 [2] of 54 µM.
`Nc1ncnc2c1ncn2[C@@H]1O[C@H](CS[C@@H]2CCN[C@H](C(=O)O)C2)[C@@H](O)[C@H]1O` gave an IC50 [1] of over 100 µM.
Work on `CN1C[C@@H](SC[C@H]2O[C@@H](n3cnc4c(N)ncnc43)[C@H](O)[C@@H]2O)C[C@H]1C(=O)O` yielded an IC50 [1] of over 100 µM.
In the case of `Nc1ncnc2c1ncn2[C@@H]1O[C@H](CSC2CNC2)[C@@H](O)[C@H]1O`, the IC50 [2] is reported as over 100 µM.
In the case of `Nc1ncnc2c1ncn2[C@@H]1O[C@H](CS[C@H]2CCCNC2)[C@@H](O)[C@H]1O`, the inhibition [3] is reported as 18%.
For `NCCSC[C@H]1O[C@@H](n2cnc3c(N)ncnc32)[C@H](O)[C@@H]1O`, the IC50 [1] was 18 µM.
`O=C(O)[C@@H]1C[C@H](SC[C@H]2O[C@@H](n3cnc4c(NCCc5ccc(-c6ccccc6)cc5)nc(Cl)nc43)[C@H](O)[C@@H]2O)CN1` showed an IC50 [1] of 2.5 µM.
`Nc1ncnc2c1ncn2[C@@H]1O[C@H](CS[C@@H]2CCC[C@@H]2N)[C@@H](O)[C@H]1O` showed an IC50 [1] of 94 µM.
Work on `Nc1ncnc2c1ncn2[C@@H]1O[C@H](CS[C@@H]2CCNC2)[C@@H](O)[C@H]1O` yielded an IC50 [1] of 4.8 µM and an IC50 [2] of 12 µM.
Work on `Nc1nc(Cl)nc2c1ncn2C1O[C@H](CS[C@H]2CCNC2)[C@@H](O)[C@H]1O` (single isomer, unassigned) yielded an IC50 [2] of over 45 µM.
With `Nc1nc(Cl)nc2c1ncn2C1O[C@H](CS[C@@H]2CN[C@H](C(=O)O)C2)[C@@H](O)[C@H]1O` (single isomer, unassigned) the IC50 [1] was 0.82 µM.
